In US20220054513A1, “COMBINATION COMPOSITIONS COMPRISING A BETA-LACTAMASE INHIBITOR” (VenatoRx Pharmaceuticals, Inc., priority 2018, published 2022):
Read-outs that look alike come from different tables or passages of the source.

Experiments:
[1] = test system: Acinetobacter baumannii-calcoaceticus species complex clinical isolates; test: MIC of triple combinations (Compound 1, sulbactam, meropenem or cefepime), 141 clinical isolates; format: cell-based; settings: Cmpd 1 at 4 μg/mL in combinations
Excerpt: For a more comprehensive assessment of the ability of test compounds to potentiate sulbactam in triple combinations with β-lactams additional MIC assays were utilized.

[2] = test system: multi-drug resistant Acinetobacter baumannii; test: broth microdilution MIC of sulbactam, ampicillin, cefepime and combinations +/- Compound 1, panel of 51 Acinetobacter isolates

For `CC1(C)[C@H](C(=O)O)N2C(=O)C[C@H]2S1(=O)=O` [SUL, Sulbactam], the MIC ([1]; Acinetobacter, strain 1035788) was 32 µg/mL, the MIC ([1]; Acinetobacter, strain 1035794) was 64 µg/mL and the MIC ([1]; Acinetobacter, strain 1035808) was 32 µg/mL. For the same molecule, the MIC ([1]; Acinetobacter, strain 1035825) was 32 µg/mL, the MIC ([1]; Acinetobacter, strain 1035900) was 32 µg/mL and the MIC ([1]; Acinetobacter, strain 1036023) was 64 µg/mL. It also gave an MIC ([1]; Acinetobacter, strain 1036045) of 32 µg/mL, an MIC ([1]; Acinetobacter, strain 1036068) of 32 µg/mL and an MIC ([1]; Acinetobacter, strain 1036734) of 32 µg/mL. For the same molecule, the MIC ([1]; Acinetobacter, strain 1036768) was 32 µg/mL, the MIC ([1]; Acinetobacter, strain 1036781) was 32 µg/mL and the MIC ([1]; Acinetobacter, strain 1036859) was 32 µg/mL. For the same molecule, the MIC ([1]; Acinetobacter, strain 1036882) was 32 µg/mL, the MIC ([1]; Acinetobacter, strain 1036921) was 64 µg/mL and the MIC ([1]; Acinetobacter, strain 1037193) was 16 µg/mL. The MIC ([1]; Acinetobacter, strain 1037211) was 64 µg/mL, the MIC ([1]; Acinetobacter, strain 1037251) was 32 µg/mL and the MIC ([1]; Acinetobacter, strain 1037256) was 16 µg/mL. The MIC ([1]; Acinetobacter, strain 1037294) was 64 µg/mL, the MIC ([1]; Acinetobacter, strain 1037462) was 16 µg/mL and the MIC ([1]; Acinetobacter, strain 1037593) was 32 µg/mL. For the same molecule, the MIC ([1]; Acinetobacter, strain 1037618) was 64 µg/mL, the MIC ([1]; Acinetobacter, strain 1037714) was 8 µg/mL and the MIC ([1]; Acinetobacter, strain 1037731) was 16 µg/mL. The MIC ([1]; Acinetobacter, strain 1037732) was 16 µg/mL, the MIC ([1]; Acinetobacter, strain 1037738) was 16 µg/mL and the MIC ([1]; Acinetobacter, strain 1037747) was 32 µg/mL. It also gave an MIC ([1]; Acinetobacter, strain 1038418) of 16 µg/mL, an MIC ([1]; Acinetobacter, strain 1038439) of 16 µg/mL and an MIC ([1]; Acinetobacter, strain 1039502) of 64 µg/mL. The MIC ([1]; Acinetobacter, strain 1039514) was 16 µg/mL, the MIC ([1]; Acinetobacter, strain 1039515) was 32 µg/mL and the MIC ([1]; Acinetobacter, strain 1039518) was 16 µg/mL. The MIC ([1]; Acinetobacter, strain 1040900) was 8 µg/mL, the MIC ([1]; Acinetobacter, strain 1040901) was 64 µg/mL and the MIC ([1]; Acinetobacter, strain 1040916) was 32 µg/mL. The MIC ([1]; Acinetobacter, strain 1042182) was 16 µg/mL, the MIC ([1]; strain 1002960) was 128 µg/mL and the MIC ([1]; strain 1010331) was 128 µg/mL. For the same molecule, the MIC ([1]; strain 1010950) was 128 µg/mL, the MIC ([1]; strain 1019086) was 128 µg/mL and the MIC ([1]; strain 1023031) was 128 µg/mL. For the same molecule, the MIC ([1]; strain 1037479) was 128 µg/mL, the MIC ([1]; strain 1040917) was 128 µg/mL and the MIC50 [2] was 16 µg/mL. The MIC90 [2] was 64 µg/mL, the MIC ([2]; read-out: Minimum inhibitory concentration (MIC), strain 0273 (ADC-25, OXA-23, OXA-66)) was 32 µg/mL and the MIC ([2]; read-out: Minimum inhibitory concentration (MIC), strain 0274 (TEM-1D, ADC-25, OXA-66, OXA-72)) was 64 µg/mL. For the same molecule, the MIC ([2]; read-out: Minimum inhibitory concentration (MIC), strain 0275 (TEM-1D, ADC-25, OXA-23, OXA-66)) was 64 µg/mL, the MIC ([2]; read-out: Minimum inhibitory concentration (MIC), strain 0276 (enzyme content ND)) was 8 µg/mL and the MIC ([2]; read-out: Minimum inhibitory concentration (MIC), strain 0277 (TEM-1B, OXA-65, OXA-24)) was 32 µg/mL. The MIC ([2]; read-out: Minimum inhibitory concentration (MIC), strain 0278 (TEM-1D, ADC-25, OXA-23, OXA-66)) was 32 µg/mL, the MIC ([2]; read-out: Minimum inhibitory concentration (MIC), strain 0279 (TEM-1D, ADC-25, OXA-23, OXA-66)) was 32 µg/mL and the MIC ([2]; read-out: Minimum inhibitory concentration (MIC), strain 0280 (TEM-1D, ADC-25, OXA-66)) was 128 µg/mL. The MIC ([2]; read-out: Minimum inhibitory concentration (MIC), strain 0281 (TEM-1D, ADC-25, OXA-82)) was 32 µg/mL, the MIC ([2]; read-out: Minimum inhibitory concentration (MIC), strain 0282 (TEM-1D, ADC-25, OXA-23, OXA-66)) was 32 µg/mL and the MIC ([2]; read-out: Minimum inhibitory concentration (MIC), strain 0283 (TEM-1D, ADC-25, OXA-23, OXA-66)) was 16 µg/mL. For the same molecule, the MIC ([2]; read-out: Minimum inhibitory concentration (MIC), strain 0284 (TEM-1B, OXA-65, OXA-24)) was 32 µg/mL, the MIC ([2]; read-out: Minimum inhibitory concentration (MIC), strain 0285 (TEM-1B, OXA-65, OXA-24)) was 16 µg/mL and the MIC ([2]; read-out: Minimum inhibitory concentration (MIC), strain 0286 (ADC-25, OXA-66, OXA-24)) was 16 µg/mL. The MIC ([2]; read-out: Minimum inhibitory concentration (MIC), strain 0287 (ADC-25, OXA-66, OXA-72)) was 64 µg/mL, the MIC ([2]; read-out: Minimum inhibitory concentration (MIC), strain 0288 (ADC-25, OXA-23, OXA-66)) was 32 µg/mL and the MIC ([2]; read-out: Minimum inhibitory concentration (MIC), strain 0289 (ADC-25, OXA-66, OXA-72)) was 16 µg/mL. For the same molecule, the MIC ([2]; read-out: Minimum inhibitory concentration (MIC), strain 0290 (TEM-1D, ADC-25, OXA-23, OXA-66)) was 32 µg/mL, the MIC ([2]; read-out: Minimum inhibitory concentration (MIC), strain 0291 (TEM-1D, ADC-25, OXA-23, OXA-66)) was 16 µg/mL and the MIC ([2]; read-out: Minimum inhibitory concentration (MIC), strain 0292 (OXA-66, OXA-72)) was 32 µg/mL. The MIC ([2]; read-out: Minimum inhibitory concentration (MIC), strain 0293 (OXA-66, OXA-72)) was 16 µg/mL, the MIC ([2]; read-out: Minimum inhibitory concentration (MIC), strain 0294 (TEM-1B, OXA-23, OXA-65)) was 16 µg/mL and the MIC ([2]; read-out: Minimum inhibitory concentration (MIC), strain 0295 (TEM-1D, ADC-25, OXA-23, OXA-66)) was 32 µg/mL. The MIC ([2]; read-out: Minimum inhibitory concentration (MIC), strain 0296 (ADC-25, OXA-23, OXA-223)) was 64 µg/mL, the MIC ([2]; read-out: Minimum inhibitory concentration (MIC), strain 0297 (ADC-25, OXA-23, OXA-66)) was 8 µg/mL and the MIC ([2]; read-out: Minimum inhibitory concentration (MIC), strain 0298 (TEM-1D, ADC-25, OXA-66, OXA-237)) was 32 µg/mL. It also gave an MIC ([2]; read-out: Minimum inhibitory concentration (MIC), strain 0299 (PER-7, OXA-23, OXA-203)) of 32 µg/mL, an MIC ([2]; read-out: Minimum inhibitory concentration (MIC), strain 0300 (ADC-25, OXA-66)) of 2 µg/mL and an MIC ([2]; read-out: Minimum inhibitory concentration (MIC), strain 0301 (ADC-25, OXA-66, OXA-72)) of 16 µg/mL. The MIC ([2]; read-out: Minimum inhibitory concentration (MIC), strain 0302 (OXA-23, OXA-82)) was 32 µg/mL, the MIC ([2]; read-out: Minimum inhibitory concentration (MIC), strain 0303 (ADC-25, OXA-23, OXA-66)) was 8 µg/mL and the MIC ([2]; read-out: Minimum inhibitory concentration (MIC), strain 0304 (ADC-25, OXA-66, OXA-72)) was 8 µg/mL. The MIC ([2]; read-out: Minimum inhibitory concentration (MIC), strain 0305 (TEM-1B, OXA-65, OXA-24)) was 8 µg/mL, the MIC ([2]; read-out: Minimum inhibitory concentration (MIC), strain 0306 (TEM-1B, OXA-65, OXA-24)) was 64 µg/mL and the MIC ([2]; read-out: Minimum inhibitory concentration (MIC), strain 0307 (ADC-25, OXA-66, OXA-237)) was 4 µg/mL. The MIC ([2]; read-out: Minimum inhibitory concentration (MIC), strain 0308 (TEM-1D, ADC-25, OXA-71)) was 32 µg/mL, the MIC ([2]; read-out: Minimum inhibitory concentration (MIC), strain 0309 (OXA-23, OXA-82)) was 8 µg/mL and the MIC ([2]; read-out: Minimum inhibitory concentration (MIC), strain 0310 (OXA-23, OXA-82)) was 32 µg/mL. The MIC ([2]; read-out: Minimum inhibitory concentration (MIC), strain 0311 (ADC-25, OXA-23, OXA-82)) was 16 µg/mL, the MIC ([2]; read-out: Minimum inhibitory concentration (MIC), strain 0312 (OXA-69)) was 4 µg/mL and the MIC ([2]; read-out: Minimum inhibitory concentration (MIC), strain 0313 (TEM-1D, OXA-23, OXA-69)) was 32 µg/mL. For the same molecule, the MIC ([2]; read-out: Minimum inhibitory concentration (MIC), strain 157834 (enzyme content ND)) was 2 µg/mL, the MIC ([2]; read-out: Minimum inhibitory concentration (MIC), strain 157842 (enzyme content ND)) was 2 µg/mL and the MIC ([2]; read-out: Minimum inhibitory concentration (MIC), strain 157876 (enzyme content ND)) was 4 µg/mL. The MIC ([2]; read-out: Minimum inhibitory concentration (MIC), strain 157901 (enzyme content ND)) was 16 µg/mL, the MIC ([2]; read-out: Minimum inhibitory concentration (MIC), strain 161750 (enzyme content ND)) was 8 µg/mL and the MIC ([2]; read-out: Minimum inhibitory concentration (MIC), strain 161752 (enzyme content ND)) was 4 µg/mL. It also gave an MIC ([2]; read-out: Minimum inhibitory concentration (MIC), strain 161755 (enzyme content ND)) of 4 µg/mL, an MIC ([2]; read-out: Minimum inhibitory concentration (MIC), strain 161756 (enzyme content ND)) of 2 µg/mL and an MIC ([2]; read-out: Minimum inhibitory concentration (MIC), strain 161760 (enzyme content ND)) of 16 µg/mL. For the same molecule, the MIC ([2]; read-out: Minimum inhibitory concentration (MIC), strain 161762 (enzyme content ND)) was 4 µg/mL.
